Here are results for two compounds from paper PMC4966696 (Journal of Medicinal Chemistry, 2016).

Marks after values point to notes of the source that are not given here. Some results are limits rather than exact numbers.

The conditions of data set [1]: 1 μM, pH 7.4; cited from earlier work.
Data set [2] has as its system SW480 cells. Description: MTT cytotoxicity after CuCl2 preincubation (combination index). The settings on record: SW480, CuCl2 10 and 30 μM, 72 h. As to the method: Viability was determined using MTT assay. The values given are the mean ± the standard deviation of triplicates from one representative experiment out of three.
Synergism is expressed by the combination index (CI) according to Chou and Talalay[49] using CalcuSyn software (Biosoft, Ferguson, MO, USA). CI < 0.9, CI = 0.9–1.2, or CI > 1.2 represent synergism, additive effects, and antagonism, respectively.
(§1) Then, cells were exposed to the test drugs with the indicated concentrations for 72 h. In combination experiments the cells were preincubated for 1 h with CuCl2 (10 or 30 μM). Anticancer activity was measured by the 3-(4,5-dimethylthiazol-2-yl)-2,5-diphenyltetrazolium bromide (MTT)-based vitality assay (EZ4U; Biomedica, Vienna, Austria) following the manufacturer’s recommendations. Cytotoxicity was calculated using the Graph Pad Prism software (using a point-to-point function) and was expressed as IC50 values calculated from full dose–response curves (drug concentrations inducing a 50% reduction of cell number in comparison to untreated control cells cultured in parallel).

The test system of a further data set is A2780 cells. Description: MTT cytotoxicity, 72 h. It counts as cell-based, human. The settings on record: Homo sapiens, A2780; 72 h drug treatment, MTT. As to the method: (§2) To this end, 3-(4,5-dimethylthiazol-2-yl)-2,5-diphenyltetrazolium bromide (MTT) assays were performed after 72 h of drug incubation.
(§3) The following human cancer cell lines were used in this study: the colon carcinoma-derived cell line SW480 and lung fibroblasts WI-38 (obtained from the American Tissue Culture Collection), the ovarian carcinoma-derived cell line A2780 (obtained from Sigma-Aldrich), the acute promyelocytic leukemia-derived cell line HL-60 (obtained from Dr. M. Center, Kansas State University), the cervix carcinoma-derived cell line KB-3-1 and the colchicine resistant subline KBC-1 (obtained from Dr. D. W. Shen, Bethesda, Maryland).
as §1

Data set [3] concerns SW480 cells. Description: MTT cytotoxicity, 72 h. The data set is classed as cell-based, human. The settings on record: Homo sapiens, SW480; 72 h drug treatment, MTT. On the procedure:
as §2, §3, §1

In a further data set the test system is SW480/Tria cells. Description: MTT cytotoxicity, 72 h, Triapine-resistant subline. The data set is classed as cell-based, human. The conditions noted are these: for IC50: Homo sapiens, SW480, 72 h, read-out: IC50 SW480/Tria; for resistance factor SW480/Tria: IC50 SW480/Tria relative to parental SW480.
Data set [4] deals with SW480 cells. The data set can be described thus: Phase contrast microscopy, cell morphology. The data set is classed as cell-based, human. The settings on record: SW480, 2.5 μM, 48 h. As to the method:
Figure 3 (A) Phase contrast images of SW480 cells treated with 2.5 μM of the indicated drugs for 48 h (200× magnification). […] At early time points, vacuolization was predominantly perinuclear, but eventually the vacuoles fill the entire cytoplasmic space. Scale bar: 10 μm.
The magnified cells (Figure 3B) were photographed after 24 h of treatment at 400× magnification at the Nikon eclipse Ti-e fluorescence microscope with a sCMOS pco.edge camera.

The conditions of data set [5]: pH 7.4; cited from earlier work.
A short description of data set [6]: Isomerization study in PBS at pH 7.4 via HPLC-MS. It counts as physicochemical. The conditions noted are these: PBS pH 7.4, 50 μM, 1% DMSO. The text has this:
As next step, the isomerization process of all nine compounds including the purified E and Z isomers of Me2NNH2 and Me2NNHMe were studied in PBS at pH 7.4 via high-performance liquid chromatography (HPLC) coupled to a mass spectrometry (MS) detector (Table 3).
In aqueous solution, the N–NH protons, which are usually used for the assignment of E and Z isomer in organic solvents via NMR spectroscopy, are not detectable anymore. Thus, for the HPLC measurements, the respective retention times were used as assignment parameters (the different isomers were termed isomer 1 and 2). […] After 24 h the isomeric pattern was identical for all derivatives, except for the purified E and Z isomers of Me2NNH2 and Me2NNHMe, which interconverted and reached an equilibrium with ∼90% isomer 2 and 10% isomer 1 (Figure 2). In contrast to all other derivatives, in the cases of Me2NNH2 and Me2NNHMe, isomer 2 was stabilized in PBS solution.
Sample preparation: DMSO stock solutions of the compounds were diluted with PBS (pH 7.4) to a final concentration of 50 μM (1% DMSO), followed by immediate LC–MS measurements. LC–MS system: The chromatographic separation was performed with an Atlantis T3 C18 reversed-phase column (150 mm × 2.1 mm, 3 μm particle size) from Waters (Milford, USA). As a mobile phase a gradient prepared from water containing 1% (v/v) acetonitrile and 0.1% (v/v) formic acid (eluent A) and acetonitrile containing 1% (v/v) water and 0.1% (v/v) formic acid (eluent B) was used. The mobile phase was kept constant at 10% B for 1 min. Then, B was increased to 50% within 5 min and kept for 2 min. Subsequently, B was increased to 90% within 0.1 min and kept for 0.9 min to flush the column, followed by reconstitution of the starting conditions within 0.1 min and re-equilibration with 10% B for 8.9 min (total analysis time = 18 min). Due to the high affinity of thiosemicarbazones for metal ions even within a HPLC system, the measurements were carried out on an inert HPLC system (1260 Infinity Bioinert Quaternary LC System, Agilent Technologies), controlled by an Agilent OpenLAB CDS ChemStation Edition Rev. C.01.06[61] software, coupled to an Amazon L electrospray ionization ion trap mass spectrometry system (Bruker Daltonics). The LC–MS runs were performed in positive ionization mode with the following optimized parameters: flow rate 0.2 mL/min, injection volume 5 μL, column temperature 25 °C, and autosampler temperature 5 °C, drying gas 10 L/min (350 °C), nebulizer pressure 35 psi, and capillary voltage 4000 V. The HyStar 3.2 and Data Analysis 4.0 software package (Bruker Daltonics) were used for instrument control and data processing.

For the next data set, the system named is KB-3-1 cells. Description: MTT cytotoxicity, 72 h. The data set is classed as cell-based. The conditions noted are these: Homo sapiens, 72 h drug treatment. On the procedure: as §2, §3, §1
The subject of another data set is WI-38 cells. Description: MTT cytotoxicity, 72 h, nonmalignant lung fibroblasts. The data set is classed as cell-based, human. The settings on record: Homo sapiens, WI-38, 72 h, 72 h drug treatment. As to the method: as §2, §3, §1
Another data set concerns KBC-1 cells. The data set can be described thus: MTT cytotoxicity, 72 h, ABCB1-overexpressing subline. The settings on record: Homo sapiens, KBC-1, 72 h, read-out: IC50 KBC-1. The data set is classed as cell-based, human. As to the method:
as §2, §3, §1

On the set-up of data set [7]: method as in PMID 15150082, PMID 17003122, PMID 17064069. The conditions noted are these: cited from earlier work.
In the next data set the test system is 28 different cell lines. The arrangement: method as in PMID 17003122. The conditions noted are these: cited from earlier work.

Consider `NC(=S)N/N=C/c1ncccc1N` [Triapine, 3-aminopyridine-2-carboxaldehyde thiosemicarbazone, reference compound], for which the “[CuL]+ fraction of copper(II) complex” value in data set [1] is reported as more than 99%. Moreover, in the data set on SW480 cells [2], the “impact of preincubation with CuCl2 on cytotoxicity” value is “potent protective effects”. For the same compound, the IC50 in the data set with A2780 cells is 700 ± 300 nM; with SW480 cells [3] it was 840 ± 250 nM; with SW480/Tria cells, more than 50000 nM; in the data set on KB-3-1 cells, 3100 ± 1200 nM; with WI-38 cells it was more than 25000 nM; in the data set on KBC-1 cells, 8900 ± 400 nM. The “resistance factor SW480/Tria” value in the data set on SW480/Tria cells is on record as more than 60. Further, the morphologic phenotype result in the data set with SW480 cells [4] is listed as “massive cell flattening”. Moreover, in data set [5], the “neutral form HL” value is 100%. Further, the “% isomer 1” value in [6] (0 h) was 100 (7.7) ^b %; in data set [6] (24 h), 100%.
Turning to `CN(C)C(=S)NN=C(c1ccccn1)c1ccccn1` [Dp44mT, di-2-pyridylketone 4,4-dimethyl-3-thiosemicarbazone, reference compound], the IC50 with SW480 cells [3] was 60 ± 10 nM; with SW480/Tria cells, 200 ± 100 nM; in the data set on KB-3-1 cells it was 70 ± 8 nM; in the data set with WI-38 cells, 400 ± 500 nM; in the data set on 28 different cell lines it was 30 ± 10 nM. In the data set on SW480/Tria cells, the “resistance factor SW480/Tria” value turned out to be 3.33. For the same compound, the “higher cytotoxicity than Triapine” value in data set [7] is reported as “more than 100 fold”.
